{"source": "ChEMBL document CHEMBL1817587", "about": "“DNA site-specific N3-adenine methylation targeted to estrogen receptor-positive cells” (Bioorg Med Chem, 2011)", "key": {"[1]": {"system": "Nucleic Acid", "assay": "Induction of DNA methylation at calf thymus DNA assessed as 3-MeA adduct level per mol of DNA at 5000 uM after 24 hrs by reverse phase HPLC", "assay_type": "nucleic-acid assay", "settings": "Bos taurus"}, "[2]": {"system": "Nucleic Acid", "assay": "Induction of DNA methylation at calf thymus DNA assessed as 3-MeA adduct level per mol of DNA at 5000 uM after 24 hrs by reverse phase HPLC in presence of 100 uM netropsin", "assay_type": "nucleic-acid assay", "settings": "Bos taurus"}, "[3]": {"system": "MCF7", "assay": "Cytotoxicity against human MCF7 cells after 16 hrs by MTT assay", "assay_type": "functional, cell-based", "settings": "MCF7, 16 h"}, "[4]": {"system": "Nucleic Acid", "assay": "Induction of DNA methylation at calf thymus DNA assessed as 3-MeA adduct level per mol of DNA after 24 hrs by reverse phase HPLC", "assay_type": "nucleic-acid assay", "settings": "Bos taurus"}, "[5]": {"system": "Nucleic Acid", "assay": "Induction of DNA methylation at calf thymus DNA assessed as 3-MeA adduct level per mol of DNA at 100 uM after 24 hrs by reverse phase HPLC in presence of 100 uM netropsin", "assay_type": "nucleic-acid assay", "settings": "Bos taurus"}, "[6]": {"system": "Nucleic Acid", "assay": "Induction of DNA methylation at calf thymus DNA assessed as 7-MeG adduct level per mol of DNA at 100 uM after 24 hrs by reverse phase HPLC", "assay_type": "nucleic-acid assay", "settings": "Bos taurus"}, "[7]": {"system": "Nucleic Acid", "assay": "Induction of DNA methylation at calf thymus DNA assessed as 7-MeG adduct level per mol of DNA at 100 uM after 24 hrs by reverse phase HPLC in presence of 100 uM netropsin", "assay_type": "nucleic-acid assay", "settings": "Bos taurus"}, "[8]": {"system": "Nucleic Acid", "assay": "Induction of DNA methylation at calf thymus DNA assessed as total adduct level at 500 uM after 24 hrs by reverse phase HPLC relative to methylmethane sufonate", "assay_type": "nucleic-acid assay", "settings": "Bos taurus"}, "[9]": {"system": "Nucleic Acid", "assay": "Induction of DNA methylation at calf thymus DNA assessed as 3-MeA level at 500 uM after 24 hrs by reverse phase HPLC relative to methylmethane sufonate", "assay_type": "nucleic-acid assay", "settings": "Bos taurus"}, "[10]": {"system": "Nucleic Acid", "assay": "Induction of DNA methylation at calf thymus DNA assessed as 7-MeG level at 500 uM after 24 hrs by reverse phase HPLC relative to methylmethane sufonate", "assay_type": "nucleic-acid assay", "settings": "Bos taurus"}, "[11]": {"system": "Nucleic Acid", "assay": "Induction of DNA methylation at calf thymus DNA assessed as 7-MeG adduct level per mol of DNA after 24 hrs by reverse phase HPLC", "assay_type": "nucleic-acid assay", "settings": "Bos taurus"}, "[12]": {"system": "Nucleic Acid", "assay": "Induction of DNA methylation at calf thymus DNA assessed as 3-MeA adduct level per mol of DNA at 50 uM after 24 hrs by reverse phase HPLC", "assay_type": "nucleic-acid assay", "settings": "Bos taurus"}, "[13]": {"system": "Nucleic Acid", "assay": "Induction of DNA methylation at calf thymus DNA assessed as 3-MeA adduct level per mol of DNA at 50 uM after 24 hrs by reverse phase HPLC in presence of 100 uM netropsin", "assay_type": "nucleic-acid assay", "settings": "Bos taurus"}, "[14]": {"system": "Nucleic Acid", "assay": "Induction of DNA methylation at calf thymus DNA assessed as 7-MeG adduct level per mol of DNA at 50 uM after 24 hrs by reverse phase HPLC", "assay_type": "nucleic-acid assay", "settings": "Bos taurus"}, "[15]": {"system": "Nucleic Acid", "assay": "Induction of DNA methylation at calf thymus DNA assessed as 7-MeG adduct level per mol of DNA at 50 uM after 24 hrs by reverse phase HPLC in presence of 100 uM netropsin", "assay_type": "nucleic-acid assay", "settings": "Bos taurus"}, "[16]": {"system": "MCF7", "assay": "Ratio of methylmethane sufonate EC50 to compound EC50 for human MCF7 cells after 16 hrs by MTT assay", "assay_type": "functional"}, "[17]": {"system": "MCF7", "assay": "Cytotoxicity against human MCF7 cells at 250 uM after 16 hrs by MTT assay pretreated with 250 uM fulvestrant", "assay_type": "functional, cell-based"}, "[18]": {"system": "MCF7", "assay": "Cytotoxicity against human MCF7 cells after 16 hrs by MTT assay pretreated with 100 uM netropsin", "assay_type": "functional, cell-based"}, "[19]": {"system": "MCF7", "assay": "Ratio of Me-lex EC50 to compound EC50 for human MCF7 cells after 16 hrs by MTT assay", "assay_type": "functional"}, "[20]": {"system": "MCF7", "assay": "Ratio of EC50 for human MCF7 cells pretreated with 100 uM netropsin to compound EC50 for human MCF7 cells", "assay_type": "functional"}, "[21]": {"biological_target": "T1, Estrogen receptor (Homo sapiens) (UniProt P03372)", "T1 sequence (whole entry)": "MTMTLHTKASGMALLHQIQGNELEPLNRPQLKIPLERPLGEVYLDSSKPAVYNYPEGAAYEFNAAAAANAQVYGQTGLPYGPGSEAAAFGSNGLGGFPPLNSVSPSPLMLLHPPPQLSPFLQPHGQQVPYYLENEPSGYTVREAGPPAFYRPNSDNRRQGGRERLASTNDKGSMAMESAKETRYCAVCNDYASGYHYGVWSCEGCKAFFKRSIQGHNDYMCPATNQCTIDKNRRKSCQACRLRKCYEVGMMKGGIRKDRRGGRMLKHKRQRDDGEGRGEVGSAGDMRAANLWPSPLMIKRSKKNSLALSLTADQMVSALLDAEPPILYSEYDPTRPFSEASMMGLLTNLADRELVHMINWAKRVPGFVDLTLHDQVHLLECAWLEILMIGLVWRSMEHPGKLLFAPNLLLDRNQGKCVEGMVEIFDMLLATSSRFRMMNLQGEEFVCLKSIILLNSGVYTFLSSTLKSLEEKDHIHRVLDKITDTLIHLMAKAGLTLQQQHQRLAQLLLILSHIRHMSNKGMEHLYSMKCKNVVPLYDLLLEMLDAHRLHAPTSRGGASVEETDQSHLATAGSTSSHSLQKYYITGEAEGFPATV", "assay": "(§1) Binding affinity to estrogen receptor-alpha after 2 hrs by TR-FRET assay"}, "[22]": {"biological_target": "T2, Estrogen receptor (Homo sapiens, UniProt P03372)", "T2 sequence (P03372 whole entry)": "T1 sequence (whole entry)", "assay": "as §1"}, "[23]": {"system": "MCF7", "assay": "Cytotoxicity against human MCF7 cells at 500 uM after 16 hrs by MTT assay", "assay_type": "functional, cell-based"}}, "note": "pEC50, pIC50: −log10 of the molar value. The source made the active and inactive calls. No cut-off for these calls is given here."}
{"smiles": "COS(C)(=O)=O", "note": "[METHANESULFONIC ACID METHYL ESTER]", "values": [{"measurement": "Activity", "setting": "[1]", "result": 1800, "unit": "µmol"}, {"measurement": "Activity", "setting": "[2]", "result": 1240, "unit": "µmol"}, {"measurement": "pEC50", "setting": "[3]", "result": 2.56}, {"measurement": "Activity", "setting": "[4]", "result": 9, "unit": "%"}]}
{"smiles": "CCCNC(=O)CCCNC(=O)c1cc(NC(=O)c2cc(NC(=O)CCS(=O)(=O)OC)cn2C)cn1C", "values": [{"measurement": "Activity", "setting": "[5]", "result": 657, "unit": "µmol"}, {"measurement": "Activity", "setting": "[6]", "result": 496, "unit": "µmol"}, {"measurement": "Activity", "setting": "[7]", "result": 614, "unit": "µmol"}, {"measurement": "fold change (FC)", "setting": "[8]", "result": 37}, {"measurement": "fold change (FC)", "setting": "[9]", "result": 391}, {"measurement": "fold change (FC)", "setting": "[10]", "result": 1.4}, {"measurement": "pEC50", "setting": "[3]", "result": 3.67}, {"measurement": "Activity", "setting": "[4]", "result": 96, "unit": "%"}, {"measurement": "Activity", "setting": "[11]", "result": 90, "unit": "%"}]}
{"smiles": "COS(=O)(=O)CCC(=O)Nc1cc(C(=O)Nc2cc(C(=O)NCCCC(=O)NCCCCCC[C@@H]3Cc4cc(O)ccc4[C@H]4CC[C@]5(C)[C@@H](O)CC[C@H]5[C@H]34)n(C)c2)n(C)c1", "values": [{"measurement": "Activity", "setting": "[12]", "result": 1760, "unit": "µmol"}, {"measurement": "Activity", "setting": "[13]", "result": 167, "unit": "µmol"}, {"measurement": "Activity", "setting": "[14]", "result": 280, "unit": "µmol"}, {"measurement": "Activity", "setting": "[15]", "result": 279, "unit": "µmol"}, {"measurement": "fold change (FC)", "setting": "[8]", "result": 11}, {"measurement": "fold change (FC)", "setting": "[9]", "result": 98}, {"measurement": "fold change (FC)", "setting": "[10]", "result": 1.5}, {"measurement": "pEC50", "setting": "[3]", "result": 3.87}, {"measurement": "Ratio EC50", "setting": "[16]", "result": 20}, {"measurement": "Activity", "setting": "[17]", "result": "inactive"}, {"measurement": "pEC50", "setting": "[18]", "result": 3.32}, {"measurement": "Ratio EC50", "setting": "[19]", "result": 1.5}, {"measurement": "Ratio EC50", "setting": "[20]", "result": 3}, {"measurement": "Activity", "setting": "[4]", "result": 86, "unit": "%"}, {"measurement": "Activity", "setting": "[11]", "result": 14, "unit": "%"}]}
{"smiles": "Cn1cc(NC(=O)c2cc(NC(=O)CCS(C)(=O)=O)cn2C)cc1C(=O)NCCCC(=O)NCCCCCC[C@@H]1Cc2cc(O)ccc2[C@H]2CC[C@]3(C)[C@@H](O)CC[C@H]3[C@H]12", "values": [{"measurement": "RBA", "setting": "[21]", "result": 51, "unit": "%"}, {"measurement": "pIC50", "setting": "[22]", "result": 8.95}, {"measurement": "Activity", "setting": "[23]", "result": "inactive"}]}
